One compound from patent US20260216183A1 (SHENZHEN NEWDEL BIOTECH CO., LTD., priority 2023, published 2026) can be followed below.

Series [1] in a line: Mouse body weight change in the oral administration experiment. The settings on record: 17 mpk p.o. once daily 22 days; vs group 2 (vehicle). It is filed as in vivo, Balb/c mice. As for the experimental part: (§1) (1) Screening and grouping: 60 female 6- to 8-week-old Balb/c mice in total were used as experimental animals in this project, which were obtained from Shanghai Model Organisms Center, Inc. The first grouping was done before the start of the experiment. […] (2) Animal modeling: The day when the first grouping was done was designated as day (−7). The backs of the mice were depilated with depilatory cream (area of about 2 cm×3 cm). […] The 1% OXA solution was prepared by weighing 0.1 g of OXA powder, adding 10 mL of an acetone solution, mixing well, and dissolving. […] (3) The administration mode of the test substance: […] The mice were sacrificed on day 21. The skin of the right ear of the mice was left for pathological examination. The thickness of the epidermal layer and inflammatory cell infiltration were measured by H&E staining, and the thickness of the dermis layer was measured by Masson staining.

Series [2] relates to OXA-induced atopic dermatitis mouse model. Briefly: OXA-induced atopic dermatitis mouse model, oral administration. It is filed as in vivo, Balb/c mice. The settings on record: for Pinna thickness change rate at time point, Significance level: 17 mpk p.o. once daily. As for the experimental part: as §1
The mark [3] stands for this setting: 17 mpk p.o. once daily 22 days, vs group 2 (vehicle).

For `CCCS(=O)(=O)N[C@H]1C[C@@H](N(C)c2ncnc3[nH]ccc23)C1` [Abrocitinib, reference compound], the “Rate of change in body weight, Significance level” value in series [1] is given as “ns (p>0.05)”. In series [2] (17 mpk p.o. once daily 22 days, compared to G2 (vehicle)), the “Inflammatory cell content in right ear tissue, Significance level” value is given as “* (*p<0.05)”. In series [2] (setting [3]), the “Clinical scores of dorsal skin, Significance level” value is listed as “* (*p<0.05)”. The “Rate of change in the thickness of the pinna of the right ear, Significance level” value in series [2] (setting [3]) is listed as “**** (****p<0.0001)”. Also, in series [2] (setting [3]), the “Thickness of dermis layer of right ear, Significance level” value is listed as “*** (***p<0.001)”. Besides, the “Thickness of epidermal layer of right ear, Significance level” value in series [2] (setting [3]) is given as “ns (p>0.05)”. Further, the “Pinna thickness change rate at time point, Significance level” value in series [2] (day 3, vs group 2 (vehicle)) is listed as “ns (p>0.05)”; in series [2] (day 5, vs group 2 (vehicle)), “ns (p>0.05)”; in series [2] (day 7, vs group 2 (vehicle)) it was “ns (p>0.05)”; in series [2] (day 10, vs group 2 (vehicle)) it was “** (**p<0.01)”; in series [2] (day 12, vs group 2 (vehicle)), “* (*p<0.05)”; in series [2] (day 14, vs group 2 (vehicle)), “** (**p<0.01)”. In addition, the “Pinna thickness change rate at time point, Significance level” value in series [2] (day 17, vs group 2 (vehicle)) was “ns (p>0.05)”; in series [2] (day 19, vs group 2 (vehicle)), “** (**p<0.01)”; in series [2] (day 21, vs group 2 (vehicle)), “* (*p<0.05)”. In addition, the “Number of inflammatory cells per mm” value in series [2] (right ear tissue, 17 mpk p.o. once daily 22 days, Mean ± SEM) stood at 236 ± 26.59 cells per mm.
